Data: patent US11135252B2, “Probiotic therapies for developmental disorders and other neurological disorders” (Baylor College of Medicine, priority 2016, dated 2021)
“Also recorded” adds a separate entry of the source.

System: MHFD offspring
Experiment: Three-chamber social test in MHFD offspring
Assay type: in vivo, mice
Details: in drinking water, 4 weeks
Protocol: Crawley's three-chamber test for sociability and preference for social novelty was performed as described (Silverman et al., 2010). In brief, the mouse first experienced a 10-minute period of habituation during which it was allowed to freely explore a 60×40×23 cm Plexiglass arena divided into three equally sized, interconnected chambers (Left, Center, Right). Sociability was measured during a second ten-minute period in which the subject could interact either with an empty wire cup (Empty) or a wire cup containing an age and sex-matched stranger conspecific (Mouse 1). Time spent interacting (sniffing, crawling upon) with either the empty cup or the stranger mouse contained in the other cup as well as time spent in each chamber was recorded using the AnyMaze software, by independent observers. Empty cup placement in the Left or Right chamber during the Sociability period was counterbalanced between trials. Finally, preference for social novelty was assayed by introducing a second stranger mouse (Mouse 2) into the previously the empty wire cup. Time spent in each chamber as well as time spent interacting with either Mouse 1 or Mouse 2 was recorded using the automated AnyMaze software by independent observers. Lactobacillus reuteri MM4-1A (ATCC-PTA-6475) and Lactobacillus johnsonii (ATCC 33200) were cultured anaerobically in MRS broth in a 90% N2, 5% CO2, 5% H2 environment. L. reuteri was heat-killed by keeping the bacteria at 80° C. for 20 minutes (Wang et al., 2010). Bacterial viability was assessed by plating and the efficacy of the heat-kill procedure was confirmed by the absence of colony growth following plating. Cultures were centrifuged, washed, and resuspended in anaerobic solution (PBS) and frozen at −80° C. until use. PBS, live or heat-killed L. reuteri were added to the drinking water, which was changed daily to minimize dosage variability. Whereas the experimental group received live bacteria, one control group received identically prepared cultures of heat-killed bacteria. A second group of control mice received water treated with PBS alone. Live and heat-killed L. reuteri were supplied at a dosage of 1×10^8 organisms/mouse/day continuously in drinking water. Mice consumed the treated water ad libitum over the treatment period. The treated drinking water for each group was replaced daily two hours prior to the onset of the dark cycle to minimize variation in microbial exposure. Behavioral assays were initiated after 4-weeks of L. reuteri or control treatment. The protocol of the L. johnsonii preparation and administration matched the L. reuteri protocol. Fecal samples for sequencing and tissue used in the immunofluorescence studies were collected at the end of the treatment. Oxytocin was obtained from Tocris Bioscience (product 1910) and solubilized in 10% dimethyl sulfoxide (DMSO) in PBS. 10% DMSO in PBS was used as the vehicle control. Mice received oxytocin intranasally (at approximately 200 μg/kg) thirty minutes prior to behavior. 1.25 μl of oxytocin or vehicle solution was injected into each nostril from P10 pipette. Oxytocin dose was selected according to dosages reported to rescue social behavior in genetic models phenotypically expressing ASD-like behaviors (Penagarikano et al., 2015).

With “Lactobacillus johnsonii (ATCC 33200) [L. johnsonii]” the “social behavior / social deficits (sociability and preference for social novelty)” value was “failed to rescue social behaviors; also recorded: Failed to Reverse Social Deficits”.
